Data from US20210070748A1, “INHIBITORS OF BRUTONS TYROSINE KINASE” (Pharmacyclics LLC, priority 2015, published 2021).

What was measured:
Assay type in all cases: biochemical
[1] = target: T1, TEC (Homo sapiens, UniProt P42680); assay: Inhibition of a panel of kinases, in vitro HotSpot kinase assay: TEC; conditions: D-compounds panel data; 1 μM ATP
T1 sequence (P42680 1-631): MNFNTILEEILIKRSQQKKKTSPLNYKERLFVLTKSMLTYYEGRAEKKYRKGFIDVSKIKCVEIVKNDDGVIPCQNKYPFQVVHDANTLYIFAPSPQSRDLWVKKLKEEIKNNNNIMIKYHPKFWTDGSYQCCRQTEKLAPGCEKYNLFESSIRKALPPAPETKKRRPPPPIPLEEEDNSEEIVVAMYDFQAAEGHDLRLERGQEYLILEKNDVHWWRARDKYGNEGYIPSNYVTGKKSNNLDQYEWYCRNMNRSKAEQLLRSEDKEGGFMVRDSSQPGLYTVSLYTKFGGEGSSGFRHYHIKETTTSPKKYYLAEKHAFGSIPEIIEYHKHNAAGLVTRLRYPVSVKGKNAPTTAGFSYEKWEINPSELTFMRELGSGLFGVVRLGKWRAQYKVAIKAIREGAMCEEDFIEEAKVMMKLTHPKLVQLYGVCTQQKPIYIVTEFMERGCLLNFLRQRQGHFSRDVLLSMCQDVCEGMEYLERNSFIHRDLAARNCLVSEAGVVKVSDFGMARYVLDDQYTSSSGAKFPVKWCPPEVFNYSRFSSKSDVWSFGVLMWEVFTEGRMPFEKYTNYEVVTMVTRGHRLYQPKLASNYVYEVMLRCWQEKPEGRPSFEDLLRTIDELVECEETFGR
Description: (§1) The degree of inhibition of a panel of kinases is determined using the in vitro HotSpot kinase assay (purified enzymes, ^33P-ATP, an appropriate substrate and 1 μM ATP).

[2] = target: T2, ITK (Homo sapiens, UniProt Q08881); assay: Inhibition of a panel of kinases, in vitro HotSpot kinase assay: ITK; conditions: D-compounds panel data; 1 μM ATP
T2 sequence (Q08881 1-620): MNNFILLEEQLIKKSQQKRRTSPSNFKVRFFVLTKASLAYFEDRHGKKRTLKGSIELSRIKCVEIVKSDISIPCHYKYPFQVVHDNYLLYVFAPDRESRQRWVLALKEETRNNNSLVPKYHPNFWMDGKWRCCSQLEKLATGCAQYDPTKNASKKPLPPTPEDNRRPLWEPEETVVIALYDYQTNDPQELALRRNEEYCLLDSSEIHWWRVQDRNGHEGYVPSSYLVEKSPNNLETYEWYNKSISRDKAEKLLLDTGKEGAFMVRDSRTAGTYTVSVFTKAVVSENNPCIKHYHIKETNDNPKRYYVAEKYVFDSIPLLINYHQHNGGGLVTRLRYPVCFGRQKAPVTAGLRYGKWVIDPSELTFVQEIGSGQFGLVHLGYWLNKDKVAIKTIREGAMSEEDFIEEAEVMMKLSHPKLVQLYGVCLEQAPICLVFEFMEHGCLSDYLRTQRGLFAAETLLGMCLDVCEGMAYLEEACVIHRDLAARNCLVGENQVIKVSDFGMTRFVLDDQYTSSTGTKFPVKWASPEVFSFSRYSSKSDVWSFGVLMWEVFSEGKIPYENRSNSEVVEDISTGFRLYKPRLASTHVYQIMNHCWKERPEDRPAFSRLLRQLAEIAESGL
Description: as §1

[3] = target: EGFR (Homo sapiens, UniProt P00533); assay: Inhibition of a panel of kinases, in vitro HotSpot kinase assay: EGFR; conditions: D-compounds panel data; 1 μM ATP
Sequence of EGFR (P00533 25-1210): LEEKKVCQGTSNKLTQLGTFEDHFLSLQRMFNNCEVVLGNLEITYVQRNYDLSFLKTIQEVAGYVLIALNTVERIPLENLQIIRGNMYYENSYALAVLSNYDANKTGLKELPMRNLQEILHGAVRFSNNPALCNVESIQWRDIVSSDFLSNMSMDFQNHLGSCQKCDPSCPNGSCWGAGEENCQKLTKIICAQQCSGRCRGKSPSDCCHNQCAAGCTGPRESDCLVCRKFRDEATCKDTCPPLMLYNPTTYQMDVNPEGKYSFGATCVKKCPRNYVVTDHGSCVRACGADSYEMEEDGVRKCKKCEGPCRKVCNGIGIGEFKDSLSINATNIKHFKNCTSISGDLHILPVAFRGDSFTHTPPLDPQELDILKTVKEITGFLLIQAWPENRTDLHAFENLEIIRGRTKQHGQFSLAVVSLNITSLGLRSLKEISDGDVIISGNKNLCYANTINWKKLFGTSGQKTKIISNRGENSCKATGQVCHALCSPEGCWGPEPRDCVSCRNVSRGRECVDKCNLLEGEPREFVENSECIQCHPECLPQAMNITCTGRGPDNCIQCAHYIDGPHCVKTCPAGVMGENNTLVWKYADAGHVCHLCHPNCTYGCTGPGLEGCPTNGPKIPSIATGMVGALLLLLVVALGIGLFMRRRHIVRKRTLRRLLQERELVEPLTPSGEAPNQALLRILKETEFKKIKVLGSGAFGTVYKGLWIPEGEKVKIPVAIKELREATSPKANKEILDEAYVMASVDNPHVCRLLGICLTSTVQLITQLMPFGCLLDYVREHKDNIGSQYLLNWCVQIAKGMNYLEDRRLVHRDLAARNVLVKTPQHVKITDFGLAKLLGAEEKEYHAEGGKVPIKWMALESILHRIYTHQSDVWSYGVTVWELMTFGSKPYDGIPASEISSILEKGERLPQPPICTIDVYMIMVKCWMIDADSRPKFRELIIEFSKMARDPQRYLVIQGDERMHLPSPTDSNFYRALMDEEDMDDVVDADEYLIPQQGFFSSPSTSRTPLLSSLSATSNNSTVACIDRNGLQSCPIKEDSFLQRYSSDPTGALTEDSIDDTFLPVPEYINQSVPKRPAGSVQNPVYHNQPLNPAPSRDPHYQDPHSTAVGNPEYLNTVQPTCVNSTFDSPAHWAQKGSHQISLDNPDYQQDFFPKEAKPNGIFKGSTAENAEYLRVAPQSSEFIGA
Description: as §1

[4] = target: T3, JAK3 (Homo sapiens, UniProt P52333); assay: Inhibition of a panel of kinases, in vitro HotSpot kinase assay: JAK3; conditions: D-compounds panel data; 1 μM ATP; read-out: IC50 JAK3
T3 sequence (P52333 1-1124): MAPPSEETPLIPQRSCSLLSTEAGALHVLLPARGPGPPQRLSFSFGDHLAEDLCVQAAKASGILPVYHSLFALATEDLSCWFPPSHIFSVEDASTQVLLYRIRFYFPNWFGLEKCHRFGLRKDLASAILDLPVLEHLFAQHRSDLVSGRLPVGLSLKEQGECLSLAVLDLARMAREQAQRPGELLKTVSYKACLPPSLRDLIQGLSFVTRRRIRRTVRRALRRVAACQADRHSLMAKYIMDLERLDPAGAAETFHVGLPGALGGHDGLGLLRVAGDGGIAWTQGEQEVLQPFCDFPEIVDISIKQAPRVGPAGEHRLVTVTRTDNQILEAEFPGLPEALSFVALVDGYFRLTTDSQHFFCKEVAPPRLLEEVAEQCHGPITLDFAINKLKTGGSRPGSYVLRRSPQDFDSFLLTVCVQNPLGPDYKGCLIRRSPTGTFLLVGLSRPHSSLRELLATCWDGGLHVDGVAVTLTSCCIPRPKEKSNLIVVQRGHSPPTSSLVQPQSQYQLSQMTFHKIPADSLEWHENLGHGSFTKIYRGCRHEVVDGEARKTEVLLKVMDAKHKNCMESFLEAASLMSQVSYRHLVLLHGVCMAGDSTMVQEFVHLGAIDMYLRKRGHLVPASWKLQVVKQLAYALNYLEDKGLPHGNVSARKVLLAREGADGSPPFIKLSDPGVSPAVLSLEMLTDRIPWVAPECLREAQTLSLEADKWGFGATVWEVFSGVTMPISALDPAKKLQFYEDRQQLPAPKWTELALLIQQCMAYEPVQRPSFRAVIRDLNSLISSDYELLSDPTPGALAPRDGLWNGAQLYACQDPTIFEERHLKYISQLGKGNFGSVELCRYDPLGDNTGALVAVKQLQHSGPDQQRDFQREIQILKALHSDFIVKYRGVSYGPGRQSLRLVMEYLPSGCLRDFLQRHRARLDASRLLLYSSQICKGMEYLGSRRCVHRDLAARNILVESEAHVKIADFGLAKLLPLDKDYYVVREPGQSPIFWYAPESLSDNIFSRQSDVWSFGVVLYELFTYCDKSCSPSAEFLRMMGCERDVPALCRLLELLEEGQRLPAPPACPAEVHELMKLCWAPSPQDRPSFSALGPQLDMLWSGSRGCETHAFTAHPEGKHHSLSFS

[5] = target: SRC (Homo sapiens, UniProt P12931); assay: Inhibition of a panel of kinases, in vitro HotSpot kinase assay: SRC; conditions: D-compounds panel data; 1 μM ATP
Sequence of SRC (P12931 whole entry): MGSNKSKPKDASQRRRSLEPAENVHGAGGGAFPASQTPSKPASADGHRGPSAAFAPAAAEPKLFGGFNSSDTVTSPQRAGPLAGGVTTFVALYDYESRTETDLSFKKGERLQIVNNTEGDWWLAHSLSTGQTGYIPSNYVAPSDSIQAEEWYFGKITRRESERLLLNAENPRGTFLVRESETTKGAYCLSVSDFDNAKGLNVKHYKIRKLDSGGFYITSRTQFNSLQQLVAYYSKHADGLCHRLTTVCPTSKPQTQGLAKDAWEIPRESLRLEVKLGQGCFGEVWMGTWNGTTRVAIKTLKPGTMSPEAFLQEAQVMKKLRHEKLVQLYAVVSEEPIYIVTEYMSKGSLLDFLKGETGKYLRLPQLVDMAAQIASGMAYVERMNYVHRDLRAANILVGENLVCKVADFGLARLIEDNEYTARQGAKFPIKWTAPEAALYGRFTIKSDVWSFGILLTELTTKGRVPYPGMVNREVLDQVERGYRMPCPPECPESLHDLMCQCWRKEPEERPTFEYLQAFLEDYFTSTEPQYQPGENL
Description: as §1

Row | Structure (SMILES) | IC50 [1] | IC50 [2] | IC50 [3] | IC50 [4] | IC50 [5]
1 | C[C@@H]1[C@H](NC(=O)c2ccc3c(c2)OCCO3)CCCN1c1cnc(C(N)=O)c(Nc2cnn(C)c2)n1 [Example D-224, 5-[(2R,3R)-3-(2,3-dihydro-1,4-benzodioxine-6-amido)-2-methylpiperidin-1-yl]-3-[(1-methyl-1H-pyrazol-4-yl)amino]pyrazine-2-carboxamide] | ≤ 10 nM | 100 to 1000 nM | 100 to 1000 nM | 1000 to 10000 nM | 10 to 100 nM
2 | Cn1cc(Nc2nc(N3CCC[C@@H](n4ccc5cc(C6CC6)ncc5c4=O)C3)cnc2C(N)=O)cn1 [Example D-225, 5-[(3R)-3-(6-cyclopropyl-1-oxo-1,2-dihydro-2,7-naphthyridin-2-yl)piperidin-1-yl]-3-[(1-methyl-1H-pyrazol-4-yl)amino]pyrazine-2-carboxamide] | ≤ 10 nM | 100 to 1000 nM | 1000 to 10000 nM | 100 to 1000 nM | 10 to 100 nM
3 | C[C@@H]1[C@H](NC(=O)c2ccc3scnc3c2)CCCN1c1cnc(C(N)=O)c(Nc2ccc(N3CCN(C)CC3)cc2)n1 [Example D-226, N-[(2R,3R)-1-(5-carbamoyl-6-{[4-(4-methylpiperazin-1-yl)phenyl]amino}pyrazin-2-yl)-2-methylpiperidin-3-yl]-1,3-benzothiazole-5-carboxamide] | ≤ 10 nM | 10 to 100 nM | 100 to 1000 nM | 100 to 1000 nM | ≤ 10 nM
4 | C[C@@H]1[C@H](NC(=O)c2ccc(S(C)(=O)=O)cc2)CCCN1c1cnc(C(N)=O)c(Nc2ccc(N3CCN(C)CC3)cc2)n1 [Example D-227, 5-[(2R,3R)-3-(4-methanesulfonylbenzamido)-2-methylpiperidin-1-yl]-3-{[4-(4-methylpiperazin-1-yl)phenyl]amino}pyrazine-2-carboxamide] | ≤ 10 nM | 10 to 100 nM | 100 to 1000 nM | 100 to 1000 nM | ≤ 10 nM
5 | C[C@@H]1[C@H](NC(=O)c2ccc(C3(C)COC3)cc2)CCCN1c1cnc(C(N)=O)c(Nc2cnn(C)c2)n1 [Example D-228, 3-[(1-methyl-1H-pyrazol-4-yl)amino]-5-[(2R,3R)-2-methyl-3-[4-(3-methyloxetan-3-yl)benzamido]piperidin-1-yl]pyrazine-2-carboxamide] | ≤ 10 nM | 100 to 1000 nM | 1000 to 10000 nM | 1000 to 10000 nM | 10 to 100 nM
6 | C[C@@H]1[C@H](NC(=O)c2ccc(C(C)(C)C)s2)CCCN1c1cnc(C(N)=O)c(Nc2cnn(C)c2)n1 [Example D-229, 5-[(2R,3R)-3-(5-tert-butylthiophene-2-amido)-2-methylpiperidin-1-yl]-3-[(1-methyl-1H-pyrazol-4-yl)amino]pyrazine-2-carboxamide] | 10 to 100 nM | 1000 to 10000 nM | 1000 to 10000 nM | > 10000 nM | 100 to 1000 nM
7 | C[C@@H]1[C@H](NC(=O)c2ccc(S(F)(F)(F)(F)F)cc2)CCCN1c1cnc(C(N)=O)c(Nc2cnn(C)c2)n1 [Example D-230, 3-[(1-methyl-1H-pyrazol-4-yl)amino]-5-[(2R,3R)-2-methyl-3-[4-(pentafluoro-λ^6-sulfanyl)benzamido]piperidin-1-yl]pyrazine-2-carboxamide] | 10 to 100 nM | 1000 to 10000 nM | 1000 to 10000 nM | > 10000 nM | 100 to 1000 nM
8 | COc1cc(C(=O)N[C@@H]2CCCN(c3cnc(C(N)=O)c(Nc4cnn(C)c4)n3)[C@@H]2C)ccc1C1CC1 [Example D-231, 5-[(2R,3R)-3-(4-cyclopropyl-3-methoxybenzamido)-2-methylpiperidin-1-yl]-3-[(1-methyl-1H-pyrazol-4-yl)amino]pyrazine-2-carboxamide] | 10 to 100 nM | 100 to 1000 nM | 1000 to 10000 nM | > 10000 nM | 10 to 100 nM
9 | Cc1ccc(C(=O)N[C@@H]2CCCN(c3cnc(C(N)=O)c(Nc4cnn(C)c4)n3)[C@@H]2C)cc1 [Example D-232, 3-[(1-methyl-1H-pyrazol-4-yl)amino]-5-[(2R,3R)-2-methyl-3-(4-methylbenzamido)piperidin-1-yl]pyrazine-2-carboxamide] | ≤ 10 nM | 100 to 1000 nM | 1000 to 10000 nM | 1000 to 10000 nM | 10 to 100 nM
